Patent publication US8969572B2, “Process for preparing tetrazole-substituted anthranilamide derivatives and novel crystal polymorphs of these derivatives” (Bayer Cropscience AG, priority 2010, dated 2015)

Tests used:
[1] = cited from earlier work
[2] = thermodynamic stability of the crystal polymorph; format: physicochemical
From the text: The compound of the formula (I-1) is known from WO2010/069502. To date, only one crystal form of the compound 1-(3-chloropyridin-2-yl)-N-[4-cyano-2-methyl-6-(methylcarbamoyl)phenyl]-3-{[5-(trifluoromethyl)-2H-tetrazol-2-yl]methyl}-1H-pyrazole-5-carboxamide of the formula (I-1) was known, which is referred to hereinafter as polymorph A. Polymorph A has a characteristic x-ray powder diffractogram, Raman spectrum and IR spectrum (Tab. 1-2, FIGS. 2, 3, 5).

| Compound | pKa [1] | thermodynamic stability of crystal polymorph [2] |
| --- | --- | --- |
| FC(F)(F)c1nnn[nH]1 [5-Trifluoromethyltetrazole] | 1.14 |  |
| CNC(=O)c1cc(C#N)cc(C)c1NC(=O)c1cc(Cn2nnc(C(F)(F)F)n2)nn1-c1ncccc1Cl [Polymorph A, 1-(3-chloropyridin-2-yl)-N-[4-cyano-2-methyl-6-(methylcarbamoyl)phenyl]-3-{[5-(trifluoromethyl)-2H-tetrazol-2-yl]methyl}-1H-pyrazole-5-carboxamide] |  | thermodynamically metastable |
